Data reported in patent US8962329B2, “Gene cluster” (Shanghai Institute of Organic Chemistry, Chinese Academy of …, priority 2008, dated 2015).
One block for each compound: values may come before it.

What was measured:
SfaA = experiment: AMP PPi assay of the putative meta-hydroxylase SfaA expressed in E. coli; format: biochemical, Streptomyces sp. A92-308110 (S. flaveolus)
Source text: Traditional phenylalanine/tyrosine/tryptophan hydroxylation systems all rely on an electrophilic substitution reaction to realize hydroxylation in the electron-rich regions of aromatic systems. On the contrary, the meta-hydroxylation of phenylalanine occurs at the relatively electron-poor meta position of phenylalanine. […] The putative meta-hydroxylase, SfaA, was expressed in E. coli and isolated using standard methods.

SfaR = experiment: in vitro activity of purified His-tagged SfaR (reduction / reductive carboxylation) on acyl substrates; format: biochemical, Streptomyces sp A92-309110 (S. flaveolus)
Source text: To validate the central role of SfaR for unusual building block supply in the proposed pathway, we first inactivated sfaR by in-frame deletion. […] Secondly, we heterologously expressed and purified the N-terminal 6× His-tagged SfaR to near homogeneity for in vitro studies. As expected, in the presence of NADPH and bicarbonate, crotonyl-S-CoA (FIG. 7, 4) was efficiently converted by SfaR to the major product ethylmalonyl-S-CoA (FIG. 7, 5) along with the shunt product butyryl-S-CoA (FIG. 7, 7). […] To exclude the possibility that the reaction directly occurs on the ACP, SfaO was expressed and purified as a N-terminal 6×His-tagged derivative. […] Thirdly, to detect the substrate flexibility of SfaR, we synthesized the 5-carbon substrate pentenyl-S-CoA.

MLR = conditions: compared with SFA; cited from earlier work

Compound: CC(=O)NCCSC(=O)C(N)Cc1ccccc1 (centres unmarked)
activity of SfaA on the substrate (SfaA): did show activity

Compound: CC/C=C/C(=O)SCCNC(=O)CCNC(=O)[C@H](O)C(C)(C)COP(=O)(O)OP(=O)(O)OC[C@H]1O[C@@H](n2cnc3c(N)ncnc32)[C@H](O)[C@@H]1OP(=O)(O)O [pentenyl-S-CoA]
Km (SfaR; pentenyl-S-CoA in reductively producing pentanoyl-S-CoA): 1.4 mM

Km (SfaR; substrate crotonyl-S-CoA, SfaR, NADPH): 0.84 mM
Compound: C/C=C/C(=O)SCCNC(=O)CCNC(=O)[C@H](O)C(C)(C)COP(=O)(O)OP(=O)(O)OC[C@H]1O[C@@H](n2cnc3c(N)ncnc32)[C@H](O)[C@@H]1OP(=O)(O)O [crotonyl-S-CoA]

Compound: sanglifehrin B
immunosuppressive activity in MLR assays (MLR): higher immunosuppressive activity than SFA

Compound: N[C@@H](Cc1ccccc1)C(=O)O [phenylalanine]
activity of SfaA on the substrate (SfaA): no activity
